Where no end group is shown, it is not given here.
What was measured:
HeLa cells = assay: MTT/MTS cell viability assay; type: cell-based, human; settings: 48 h, at the assessed concentrations
Source text: (§1) Human epithelial cervical cancer (HeLa, ATCC, CCL-2), prostate cancer (PC3, ATCC, CRL-1435) and histiocytic lymphoma (U937, ATCC, CRL-1593.2) cells were obtained from the American Type Culture Collection (Gaithersburg, Maryland) and cultured in RPMI-1640 medium (Thermo Fisher Scientific, Waltham, MA) supplemented with 5–10% (v/v) foetal bovine serum (FBS), 100 U/mL penicillin and 100 U/mL streptomycin (Invitrogen, Carlsbad, CA). Adult human dermal fibroblasts (AHDF, Lonza, CC-2511) cells were obtained from Lonza (Basel, Switzerland) and cultured in Dulbecco’s Modified Eagle Medium (DMEM) (Thermo Fisher Scientific) supplemented with 10% (v/v) FBS, 100 U/mL penicillin and 100 U/mL streptomycin. Human umbilical vein epithelial (HUVEC, Lonza, CC-2519) cells were obtained from Lonza and cultured in EBM-2 medium supplemented with EGM-2 SingleQuots (Lonza). All cell lines were maintained at 37 °C in a humidified incubator with 5% CO2.
(§2) Cell viability assays were performed using MTT/MTS as previously described[8].

U937 cells = assay: MTT/MTS cell viability assay; type: cell-based, human; settings: 48 h, at the assessed concentrations
Source text: as §1, §2

[1] = Calcein-encapsulated liposome lysis assay; type: biochemical
Method: Liposomes were prepared using natural chicken egg L-α-phophatidylcholine and L-α-phosphatidic acid dissolved in chloroform (Avanti Polar Lipids), and liposome pulldowns (at pH 7.4) and calcein-encapsulated liposome lysis assays were performed as previously described. For liposome pulldowns performed at pH 5.5, the same protocol was used with minor variations. The desiccated lipid films were resuspended in 20 mM MES pH 7.4 and were washed in the same buffer during the centrifugation process. After the final wash step, the liposome pellets were resuspended in 20 mM MES pH 5.5 and incubated with CpoBD13 or mutants thereof (also prepared in the same acidic buffer).

C. albicans ATCC 10231 = assay: Propidium iodide uptake assay in pH-buffered conditions (MES buffer); type: cell-based, Candida albicans; settings: 30 min
Method: For fungal growth assays, overnight cultures of C. albicans ATCC 10231 cells (yeast peptone dextrose broth, 30°C, shaking at 160 rpm) were pelleted (2000 g, 5 min), washed once in 0.5× potato dextrose broth (BD Biosciences, Franklin Lakes, NJ) and finally resuspended in the same media. Cells were seeded onto a 96-well plate (400 cells, 50 µL) and treated with an equal volume of varying concentrations of defensin in 0.5× potato dextrose broth. After incubating the samples (24 h, 30 °C), the plates were shaken to distribute the cells and growth was determined by performing a 9-well scan (600 nm) using a Spectramax M5e microplate reader (Molecular Devices, San Jose, CA). For assays testing defensin salt tolerance, C. albicans cells were instead resuspended in 1x potato dextrose broth and treated with an equal volume of CpoBD13 + NaCl solution at their intended concentrations. Propidium iodide (PI) uptake assays were performed by preparing the cells as per the standard growth inhibition assay however they were instead seeded onto a U-bottom 96-well plate (50,000 cells, 25 µL). […] For PI uptake experiments performed at a specific pH, the same method was followed with the exception that cells were resuspended in 1× potato dextrose broth while defensin titrations were diluted in 40 mM MES buffer at the intended pH. An example PI uptake gating strategy is presented in Supplementary Fig. 1d.

Source text for HUVEC cells: as §1, §2

In the case of “CpoBD13: saltwater crocodile β-defensin 13, histidine-rich, three disulphide bonds, recombinantly expressed in Pichia pastoris (NGSYYSTLQCRNNHGHCRRLCFHGEQWIGNCNGRHQHCCK; disulfide (positions not given here); also: three disulphide bonds, pairings not given here)”, the “effect on cell viability” value (HeLa cells) is reported as “did not affect the viability”, the “effect on cell viability” value (U937 cells) is reported as “did not affect the viability” and the “lysis of PC:PA liposomes relative to PC only liposomes” value ([1]; 20 µM, 30 min, calcein release) is reported as “significant increase in the lysis”. For the same substance, the “Lysis (%)” value ([1]; PC liposomes, replicate 1) was 54.3884%, the “Lysis (%)” value ([1]; PC liposomes, replicate 2) was 55.3559% and the “Lysis (%)” value ([1]; PC liposomes, replicate 3) was 54.0992%. For the same substance, the “Lysis (%)” value ([1]; PC:PA liposomes, replicate 1) was 67.3935%, the “Lysis (%)” value ([1]; PC:PA liposomes, replicate 2) was 66.6111% and the “Lysis (%)” value ([1]; PC:PA liposomes, replicate 3) was 65.2527%. The “Lysis (%)” value ([1]; PC:PA, 20 µM, 0 min, replicate 1) was 25.7371%, the “Lysis (%)” value ([1]; PC:PA, 20 µM, 0 min, replicate 2) was 19.5617% and the “Lysis (%)” value ([1]; PC:PA, 20 µM, 0 min, replicate 3) was 31.0288%. The “Lysis (%)” value ([1]; PC:PA, 20 µM, 2 min, replicate 1) was 44.3847%, the “Lysis (%)” value ([1]; PC:PA, 20 µM, 2 min, replicate 2) was 47.8762% and the “Lysis (%)” value ([1]; PC:PA, 20 µM, 2 min, replicate 3) was 47.362%. For the same substance, the “Lysis (%)” value ([1]; PC:PA, 20 µM, 4 min, replicate 1) was 50.7757%, the “Lysis (%)” value ([1]; PC:PA, 20 µM, 4 min, replicate 2) was 55.3375% and the “Lysis (%)” value ([1]; PC:PA, 20 µM, 4 min, replicate 3) was 52.3336%. For the same substance, the “Lysis (%)” value ([1]; PC:PA, 20 µM, 6 min, replicate 1) was 56.1428%, the “Lysis (%)” value ([1]; PC:PA, 20 µM, 6 min, replicate 2) was 57.6724% and the “Lysis (%)” value ([1]; PC:PA, 20 µM, 6 min, replicate 3) was 56.2525%. The “Lysis (%)” value ([1]; PC:PA, 20 µM, 8 min, replicate 1) was 57.9433%, the “Lysis (%)” value ([1]; PC:PA, 20 µM, 8 min, replicate 2) was 61.2343% and the “Lysis (%)” value ([1]; PC:PA, 20 µM, 8 min, replicate 3) was 57.4403%. For the same substance, the “Lysis (%)” value ([1]; PC:PA, 20 µM, 10 min, replicate 1) was 60.1091%, the “Lysis (%)” value ([1]; PC:PA, 20 µM, 10 min, replicate 2) was 61.4149% and the “Lysis (%)” value ([1]; PC:PA, 20 µM, 10 min, replicate 3) was 58.1894%. The “Lysis (%)” value ([1]; PC:PA, 20 µM, 12 min, replicate 1) was 61.5771%, the “Lysis (%)” value ([1]; PC:PA, 20 µM, 12 min, replicate 2) was 62.8368% and the “Lysis (%)” value ([1]; PC:PA, 20 µM, 12 min, replicate 3) was 59.7071%. For the same substance, the “Lysis (%)” value ([1]; PC:PA, 20 µM, 14 min, replicate 1) was 62.1444%, the “Lysis (%)” value ([1]; PC:PA, 20 µM, 14 min, replicate 2) was 63.0568% and the “Lysis (%)” value ([1]; PC:PA, 20 µM, 14 min, replicate 3) was 60.7639%. For the same substance, the “Lysis (%)” value ([1]; PC:PA, 20 µM, 16 min, replicate 1) was 64.0158%, the “Lysis (%)” value ([1]; PC:PA, 20 µM, 16 min, replicate 2) was 63.5735% and the “Lysis (%)” value ([1]; PC:PA, 20 µM, 16 min, replicate 3) was 61.3601%. For the same substance, the “Lysis (%)” value ([1]; PC:PA, 20 µM, 18 min, replicate 1) was 65.2175%, the “Lysis (%)” value ([1]; PC:PA, 20 µM, 18 min, replicate 2) was 63.6472% and the “Lysis (%)” value ([1]; PC:PA, 20 µM, 18 min, replicate 3) was 61.6924%. For the same substance, the “Lysis (%)” value ([1]; PC:PA, 20 µM, 20 min, replicate 1) was 64.1335%, the “Lysis (%)” value ([1]; PC:PA, 20 µM, 20 min, replicate 2) was 65.2803% and the “Lysis (%)” value ([1]; PC:PA, 20 µM, 20 min, replicate 3) was 62.4881%. For the same substance, the “Lysis (%)” value ([1]; PC:PA, 20 µM, 22 min, replicate 1) was 64.7756%, the “Lysis (%)” value ([1]; PC:PA, 20 µM, 22 min, replicate 2) was 65.3585% and the “Lysis (%)” value ([1]; PC:PA, 20 µM, 22 min, replicate 3) was 63.4838%. For the same substance, the “Lysis (%)” value ([1]; PC:PA, 20 µM, 24 min, replicate 1) was 65.4459%, the “Lysis (%)” value ([1]; PC:PA, 20 µM, 24 min, replicate 2) was 66.2461% and the “Lysis (%)” value ([1]; PC:PA, 20 µM, 24 min, replicate 3) was 64.0406%. For the same substance, the “Lysis (%)” value ([1]; PC:PA, 20 µM, 26 min, replicate 1) was 65.9416%, the “Lysis (%)” value ([1]; PC:PA, 20 µM, 26 min, replicate 2) was 66.5138% and the “Lysis (%)” value ([1]; PC:PA, 20 µM, 26 min, replicate 3) was 64.3943%. The “Lysis (%)” value ([1]; PC:PA, 20 µM, 28 min, replicate 1) was 66.2501%, the “Lysis (%)” value ([1]; PC:PA, 20 µM, 28 min, replicate 2) was 65.4475% and the “Lysis (%)” value ([1]; PC:PA, 20 µM, 28 min, replicate 3) was 64.7127%. The “Lysis (%)” value ([1]; PC:PA, 20 µM, 30 min, replicate 1) was 67.3935%, the “Lysis (%)” value ([1]; PC:PA, 20 µM, 30 min, replicate 2) was 66.6111% and the “Lysis (%)” value ([1]; PC:PA, 20 µM, 30 min, replicate 3) was 65.2527%. The “Lysis (%)” value ([1]; PC, 20 µM, 0 min, replicate 1) was 15.1234%, the “Lysis (%)” value ([1]; PC, 20 µM, 0 min, replicate 2) was 15.1242% and the “Lysis (%)” value ([1]; PC, 20 µM, 0 min, replicate 3) was 13.8859%. The “Lysis (%)” value ([1]; PC, 20 µM, 2 min, replicate 1) was 39.0447%, the “Lysis (%)” value ([1]; PC, 20 µM, 2 min, replicate 2) was 32.4816% and the “Lysis (%)” value ([1]; PC, 20 µM, 2 min, replicate 3) was 30.5639%. For the same substance, the “Lysis (%)” value ([1]; PC, 20 µM, 4 min, replicate 1) was 45.2997%, the “Lysis (%)” value ([1]; PC, 20 µM, 4 min, replicate 2) was 38.3127% and the “Lysis (%)” value ([1]; PC, 20 µM, 4 min, replicate 3) was 36.68%. For the same substance, the “Lysis (%)” value ([1]; PC, 20 µM, 6 min, replicate 1) was 48.9071%, the “Lysis (%)” value ([1]; PC, 20 µM, 6 min, replicate 2) was 41.9281% and the “Lysis (%)” value ([1]; PC, 20 µM, 6 min, replicate 3) was 41.2305%. For the same substance, the “Lysis (%)” value ([1]; PC, 20 µM, 8 min, replicate 1) was 49.7649%, the “Lysis (%)” value ([1]; PC, 20 µM, 8 min, replicate 2) was 44.0474% and the “Lysis (%)” value ([1]; PC, 20 µM, 8 min, replicate 3) was 43.6445%. For the same substance, the “Lysis (%)” value ([1]; PC, 20 µM, 10 min, replicate 1) was 51.7674%, the “Lysis (%)” value ([1]; PC, 20 µM, 10 min, replicate 2) was 44.7293% and the “Lysis (%)” value ([1]; PC, 20 µM, 10 min, replicate 3) was 45.2138%. The “Lysis (%)” value ([1]; PC, 20 µM, 12 min, replicate 1) was 52.4795%, the “Lysis (%)” value ([1]; PC, 20 µM, 12 min, replicate 2) was 46.5217% and the “Lysis (%)” value ([1]; PC, 20 µM, 12 min, replicate 3) was 46.4513%. For the same substance, the “Lysis (%)” value ([1]; PC, 20 µM, 14 min, replicate 1) was 52.8236%, the “Lysis (%)” value ([1]; PC, 20 µM, 14 min, replicate 2) was 47.6803% and the “Lysis (%)” value ([1]; PC, 20 µM, 14 min, replicate 3) was 47.9678%. The “Lysis (%)” value ([1]; PC, 20 µM, 16 min, replicate 1) was 54.9403%, the “Lysis (%)” value ([1]; PC, 20 µM, 16 min, replicate 2) was 49.0986% and the “Lysis (%)” value ([1]; PC, 20 µM, 16 min, replicate 3) was 49.0311%. For the same substance, the “Lysis (%)” value ([1]; PC, 20 µM, 18 min, replicate 1) was 53.0929%, the “Lysis (%)” value ([1]; PC, 20 µM, 18 min, replicate 2) was 50.179% and the “Lysis (%)” value ([1]; PC, 20 µM, 18 min, replicate 3) was 50.039%. The “Lysis (%)” value ([1]; PC, 20 µM, 20 min, replicate 1) was 53.041%, the “Lysis (%)” value ([1]; PC, 20 µM, 20 min, replicate 2) was 50.8527% and the “Lysis (%)” value ([1]; PC, 20 µM, 20 min, replicate 3) was 51.0255%. For the same substance, the “Lysis (%)” value ([1]; PC, 20 µM, 22 min, replicate 1) was 54.0904%, the “Lysis (%)” value ([1]; PC, 20 µM, 22 min, replicate 2) was 52.2587% and the “Lysis (%)” value ([1]; PC, 20 µM, 22 min, replicate 3) was 51.6328%. The “Lysis (%)” value ([1]; PC, 20 µM, 24 min, replicate 1) was 54.3794%, the “Lysis (%)” value ([1]; PC, 20 µM, 24 min, replicate 2) was 53.0954% and the “Lysis (%)” value ([1]; PC, 20 µM, 24 min, replicate 3) was 52.0331%. For the same substance, the “Lysis (%)” value ([1]; PC, 20 µM, 26 min, replicate 1) was 55.6275%, the “Lysis (%)” value ([1]; PC, 20 µM, 26 min, replicate 2) was 53.8088% and the “Lysis (%)” value ([1]; PC, 20 µM, 26 min, replicate 3) was 52.9179%. For the same substance, the “Lysis (%)” value ([1]; PC, 20 µM, 28 min, replicate 1) was 53.4363%, the “Lysis (%)” value ([1]; PC, 20 µM, 28 min, replicate 2) was 55.2629% and the “Lysis (%)” value ([1]; PC, 20 µM, 28 min, replicate 3) was 53.0065%. The “Lysis (%)” value ([1]; PC, 20 µM, 30 min, replicate 1) was 54.3884%, the “Lysis (%)” value ([1]; PC, 20 µM, 30 min, replicate 2) was 55.3559% and the “Lysis (%)” value ([1]; PC, 20 µM, 30 min, replicate 3) was 54.0992%. For the same substance, the membrane permeabilising activity (C. albicans ATCC 10231; pH 5.5) was “highly effective”, the membrane permeabilising activity (C. albicans ATCC 10231; pH 6.5) was “significantly reduced” and the membrane permeabilising activity (C. albicans ATCC 10231; pH 7.5) was “most dramatic loss of activity”. The “effect on cell viability” value (HUVEC cells) was “did not affect the viability”.

Reference: article PMC9977887, “Crocodile defensin (CpoBD13) antifungal activity via pH-dependent phospholipid targeting and membrane disruption” (Nature Communications, 2023)
